From patent US20260265227A1, “AMIDE PRODRUGS AND USES THEREOF” (Autobahn Therapeutics, Inc., priority 2022, published 2026)

Target: T1, recombinant human FAAH (rhFAAH) (Homo sapiens, UniProt O00519)
T1 construct: purchased Cayman Chemical (Ann Arbor, MI, USA)
T1 sequence (O00519 1-579): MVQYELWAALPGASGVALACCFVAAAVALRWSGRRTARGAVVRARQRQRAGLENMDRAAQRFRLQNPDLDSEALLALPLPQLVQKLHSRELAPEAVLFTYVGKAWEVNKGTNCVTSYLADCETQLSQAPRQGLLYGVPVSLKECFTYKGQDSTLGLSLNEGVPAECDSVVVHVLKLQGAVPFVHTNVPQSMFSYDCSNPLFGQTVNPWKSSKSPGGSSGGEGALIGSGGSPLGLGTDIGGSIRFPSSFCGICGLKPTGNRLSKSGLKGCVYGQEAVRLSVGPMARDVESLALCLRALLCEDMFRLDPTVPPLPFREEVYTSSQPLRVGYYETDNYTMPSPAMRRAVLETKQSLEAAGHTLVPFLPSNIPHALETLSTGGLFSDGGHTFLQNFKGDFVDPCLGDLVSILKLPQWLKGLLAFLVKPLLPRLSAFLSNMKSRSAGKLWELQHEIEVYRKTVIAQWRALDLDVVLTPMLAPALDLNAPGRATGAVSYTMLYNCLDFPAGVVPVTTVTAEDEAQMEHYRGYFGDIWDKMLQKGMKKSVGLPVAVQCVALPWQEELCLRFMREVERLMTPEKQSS
Test: FAAH Substrate Evaluation (formation of acid metabolite from amide prodrug)
Assay type: biochemical
Conditions: 0.5 ng/μL rhFAAH, 1 μM test compound, Tris-EDTA buffer pH 8.0, 0.1% BSA, room temperature, 0-60 minutes, LC-MS/MS
Method: Purified recombinant human FAAH (rhFAAH) was purchased from Cayman Chemical (Ann Arbor, MI, USA). The total volume for each incubation was 400 μL containing a final 0.5 ng/μL rhFAAH, 1 μM test compound, 1.25% ethanol or 1 μM PF-3845 (FAAH inhibitor), and 0.1% bovine serum albumin in Tris-EDTA buffer at pH 8.0). The positive control was LL-341001. The incubation was conducted at the room temperature. At 0, 5, 15, 30 and 60 minutes, an aliquot of 30 μL reaction mixtures was removed and mixed with 300 μL acetonitrile containing 5 ng/mL terfenadine and 10 ng/ml tolbutamide as internal standards to quench the reaction. The resulting mixture was centrifuged at 4000 rpm, 4° C. for 15 minutes, and 100 μL supernatant was ready for LC-MS/MS analysis to measure the formation of acid metabolite.
Acquity Ultra Performance LC system from Waters was used for sample analysis. The chromatography was performed on a reverse phase Kinetex 2.6 μm C18 column, 2.1×30 mm, 100 Å. The mobile phase A comprised of 0.1% formic acid in water and mobile phase B comprised of 0.1% formic acid in acetonitrile with a 2-min run time at the flow rate of 0.8 mL/min for the acid metabolite from positive control or a 1.5 min run time at the flow rate of 0.9 mL/min for the acid metabolite of test compounds. The mass spectrometer (API-5500 and API Q Trap 4000 Applied Biosystems/MDS SCIEX Instruments, Framingham, MA, USA) was operated under ESI positive or negative ion MRM mode.
The formation of acid metabolite was monitored and quantified using one calibration point of 1 μM. The observed rate constant (ke) for the acid metabolite formation was calculated by plotting the metabolite concentration versus time of incubation with the slope being ke and is shown in Table 1.

With `CC[C@@H](C)NC(=O)C1CN(CC2=Cc3ccc(OCCCC(F)(F)F)cc3C[C@@H]2C)C1` [Compound 8, N—((R)-sec-butyl)-1-(((S)-3-methyl-6-(4,4,4-trifluorobutoxy)-3,4-dihydronaphthalen-2-yl)methyl)azetidine-3-carboxamide] the “ke (observed rate constant for the acid metabolite formation)” value was “A (ke is more than or equal to 1.0)”.
